Here are results for 13 molecules from patent US20060069132A1, “Azolecarboxamide herbicides” (priority 2004, published 2006).

Common to all, as to experiment: Test C flooded paddy test
The test system of experiment [1] is barnyardgrass. In kind it is in vivo, Echinochloa crus-galli. The conditions noted are these: for Plant response rating, Barnyardgrass: visual rating after 12 to 14 days. Put shortly: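 After a postemergence application at 1 to 4 leaves (plants 2–18 cm high), or at 2 leaves for barnyardgrass in flooded paddy, plants stayed in the greenhouse for 12 to 14 days. Damage was then judged visually relative to control plants, with 100 indicating complete control.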

The subject of experiment [2] is ducksalad. In kind it is in vivo, Heteranthera limosa. The conditions noted are these: for Plant response rating, Ducksalad: visual rating after 12 to 14 days.
Experiment [3] relates to smallflower umbrella sedge. It is filed as in vivo, Cyperus difformis. The conditions noted are these: for Plant response rating, Sedge, Umbrella: visual rating after 12 to 14 days.
[4] abbreviates: 62 g ai/ha, scale 0 to 100 (0 no effect, 100 complete control).
Where [5] appears, read: 125 g ai/ha, scale 0 to 100 (0 no effect, 100 complete control).
Where [6] appears, read: 250 g ai/ha, scale of 0 to 100, 0 is no effect, 100 is complete control.
Setting [7] is: 500 g ai/ha, scale 0 to 100 (0 no effect, 100 complete control).
The mark [8] stands for this setting: 125 g ai/ha, scale of 0 to 100, 0 is no effect, 100 is complete control.
[9] abbreviates: 250 g ai/ha, scale 0 to 100 (0 no effect, 100 complete control).

For the molecule `C#CCNC(=O)c1cc(NC(=O)c2cc(C(C)(C)C)nn2CC)ccn1` [Compound 283], the “Barnyardgrass plant response rating” value in experiment [1] (setting [4]), in experiment [1] (setting [5]) and in experiment [1] (setting [6]) was 0 each time. Also, in experiment [1] (setting [7]), the “Plant response rating, Barnyardgrass” value amounted to 10. In addition, the “Ducksalad plant response rating” value in experiment [2] (62 g ai/ha, scale 0 to 100) was found to be 0; in experiment [2] (setting [5]), 0; in experiment [2] (setting [6]) it was 0. Further, in experiment [2] (setting [7]), the “Plant response rating, Ducksalad” value was 0. In addition, the “Sedge, Umbrella plant response rating” value stood at 0 in experiment [3] (62 g ai/ha, scale 0 to 100); 0 in experiment [3] (setting [5]); 0 in experiment [3] (setting [6]). Further, in experiment [3] (setting [7]), the “Plant response rating, Sedge, Umbrella” value came to 0.
For `CCOc1cccc(NC(=O)c2cc(C(C)(C)C)nn2CC)c1` [Compound 136], the “Barnyardgrass plant response rating” value in experiment [1] (setting [4]) is recorded as 20; in experiment [1] (setting [8]), 25; in experiment [1] (setting [6]) it was 40. Moreover, the “Plant response rating, Barnyardgrass” value in experiment [1] (setting [7]) is 80. Further, the “Ducksalad plant response rating” value in experiment [2] (setting [4]) was 0; in experiment [2] (setting [5]) it was 0; in experiment [2] (setting [6]), 45. Further, in experiment [2] (setting [7]), the “Plant response rating, Ducksalad” value worked out at 90. In addition, the “Sedge, Umbrella plant response rating” value in experiment [3] (setting [4]) is 65; in experiment [3] (setting [5]), 80; in experiment [3] (setting [6]), 85. In experiment [3] (setting [7]), the “Plant response rating, Sedge, Umbrella” value came to 85.
Consider `CCn1nc(C(C)(C)C)cc1C(=O)Nc1cccc(OCCCF)c1` [Compound 138], for which the “Barnyardgrass plant response rating” value in experiment [1] (setting [4]) came out at 0; in experiment [1] (setting [8]) it was 0; in experiment [1] (setting [6]) it was 15. The “Plant response rating, Barnyardgrass” value in experiment [1] (setting [7]) is reported as 30. Further, the results for the “Ducksalad plant response rating” value in experiment [2] (setting [4]), in experiment [2] (setting [5]) and in experiment [2] (setting [6]) were 0, 20 and 55, respectively. The “Plant response rating, Ducksalad” value in experiment [2] (setting [7]) is reported as 70. Further, the “Sedge, Umbrella plant response rating” value in experiment [3] (setting [4]) is 0; in experiment [3] (setting [5]) it was 40; in experiment [3] (setting [6]), 75. Besides, the “Plant response rating, Sedge, Umbrella” value in experiment [3] (setting [7]) was 95.
For the molecule `CCn1nc(C(C)(C)C)cc1C(=O)Nc1cc(C(=O)NCC2CC2)ccn1` [Compound 155], the “Barnyardgrass plant response rating” value in experiment [1] (setting [4]) stood at 0; in experiment [1] (setting [8]), 25; in experiment [1] (setting [6]), 50. The “Plant response rating, Barnyardgrass” value in experiment [1] (setting [7]) turned out to be 65. Moreover, the results for the “Ducksalad plant response rating” value in experiment [2] (setting [4]), in experiment [2] (setting [5]) and in experiment [2] (setting [6]) were 45, 80 and 85, respectively. Moreover, in experiment [2] (setting [7]), the “Plant response rating, Ducksalad” value was 90. For the same molecule, the “Sedge, Umbrella plant response rating” value in experiment [3] (setting [4]) amounted to 0; in experiment [3] (setting [5]), 30; in experiment [3] (setting [6]), 65. Moreover, the “Plant response rating, Sedge, Umbrella” value in experiment [3] (setting [7]) is on record as 75.
With `CCN(C(C)=O)C(=O)c1ccc(F)c(NC(=O)c2cc(C(C)(C)C)nn2CC)c1` [Compound 413], the “Barnyardgrass plant response rating” value in experiment [1] (setting [4]) was determined as 0; in experiment [1] (setting [5]), 25; in experiment [1] (setting [6]), 70. Further, the “Plant response rating, Barnyardgrass” value in experiment [1] (setting [7]) was found to be 80. Moreover, the “Ducksalad plant response rating” value came to 15 in experiment [2] (62 g ai/ha, scale 0 to 100); 45 in experiment [2] (setting [5]); 70 in experiment [2] (setting [6]). In experiment [2] (setting [7]), the “Plant response rating, Ducksalad” value was determined as 70. The “Sedge, Umbrella plant response rating” value is 10 in experiment [3] (62 g ai/ha, scale 0 to 100); 50 in experiment [3] (setting [5]); 75 in experiment [3] (setting [6]). Besides, in experiment [3] (setting [7]), the “Plant response rating, Sedge, Umbrella” value was 75.
Take `CCn1nc(C(C)(C)C)cc1C(=O)Nc1nc(C(=O)N2CC=CC2)ccc1F` [Compound 281]: the figures for the “Barnyardgrass plant response rating” value in experiment [1] (setting [4]), in experiment [1] (setting [5]) and in experiment [1] (setting [6]) were 0, 20 and 30, respectively. Besides, the “Plant response rating, Barnyardgrass” value in experiment [1] (setting [7]) came out at 65. Moreover, the “Ducksalad plant response rating” value in experiment [2] (62 g ai/ha, scale 0 to 100) was determined as 0; in experiment [2] (setting [5]) it was 0; in experiment [2] (setting [6]) it was 70. Moreover, the “Plant response rating, Ducksalad” value in experiment [2] (setting [7]) is 85. Further, the “Sedge, Umbrella plant response rating” value in experiment [3] (62 g ai/ha, scale 0 to 100) turned out to be 15; in experiment [3] (setting [5]), 20; in experiment [3] (setting [6]) it was 40. In experiment [3] (setting [7]), the “Plant response rating, Sedge, Umbrella” value is recorded as 90.
On to `C#CCNC(=O)c1cccc(NC(=O)c2sc(C(C)(C)C)nc2CC)c1` [Compound 319], for which the figures for the “Barnyardgrass plant response rating” value in experiment [1] (setting [4]), in experiment [1] (setting [5]) and in experiment [1] (setting [6]) were 0, 25 and 50, respectively. Also, the “Plant response rating, Barnyardgrass” value in experiment [1] (setting [7]) came out at 65. The “Ducksalad plant response rating” value in experiment [2] (62 g ai/ha, scale 0 to 100) turned out to be 0; in experiment [2] (setting [5]), 0; in experiment [2] (setting [6]), 45. Besides, the “Plant response rating, Ducksalad” value in experiment [2] (setting [7]) was found to be 85. Further, the “Sedge, Umbrella plant response rating” value is 20 in experiment [3] (62 g ai/ha, scale 0 to 100); 35 in experiment [3] (setting [5]); 70 in experiment [3] (setting [6]). In addition, in experiment [3] (setting [7]), the “Plant response rating, Sedge, Umbrella” value stood at 80.
`CCn1nc(C(C)(C)C)cc1C(=O)Nc1cccc(C(=O)NC(C)C)c1` [Compound 51]: the “Barnyardgrass plant response rating” value in experiment [1] (setting [4]) is 0; in experiment [1] (setting [8]), 0; in experiment [1] (setting [6]) it was 20. In experiment [1] (setting [7]), the “Plant response rating, Barnyardgrass” value is 75. The “Ducksalad plant response rating” value in experiment [2] (setting [4]) stood at 0; in experiment [2] (setting [8]) it was 55; in experiment [2] (setting [6]), 75. In experiment [2] (setting [7]), the “Plant response rating, Ducksalad” value is recorded as 85. Moreover, the “Sedge, Umbrella plant response rating” value in experiment [3] (setting [4]) came out at 45; in experiment [3] (setting [8]), 50; in experiment [3] (setting [6]), 65. Also, the “Plant response rating, Sedge, Umbrella” value in experiment [3] (setting [7]) was found to be 80.
`CCn1nc(C(C)(C)C)cc1C(=O)Nc1cccc(C(=O)NCCF)c1` [Compound 45]: the “Barnyardgrass plant response rating” value in experiment [1] (setting [4]) is recorded as 25; in experiment [1] (setting [8]), 30. For the same molecule, the “Plant response rating, Barnyardgrass” value in experiment [1] (setting [9]) is given as 60; in experiment [1] (setting [7]), 80. Further, the “Ducksalad plant response rating” value in experiment [2] (setting [4]) and in experiment [2] (setting [8]) was 0 each time. The “Plant response rating, Ducksalad” value in experiment [2] (setting [9]) and in experiment [2] (setting [7]) was 60 throughout. For the same molecule, the “Sedge, Umbrella plant response rating” value is recorded as 55 in experiment [3] (setting [4]) and 60 in experiment [3] (setting [8]). Moreover, the “Plant response rating, Sedge, Umbrella” value in experiment [3] (setting [9]) and in experiment [3] (setting [7]) was 80 in each case.
On to `CCn1nc(C(C)(C)C)cc1C(=O)Nc1cncc(C(=O)N2CC=CC2)n1` [Compound 290], for which the “Barnyardgrass plant response rating” value in experiment [1] (setting [4]) is listed as 0; in experiment [1] (setting [5]), 0; in experiment [1] (setting [6]) it was 25. The “Plant response rating, Barnyardgrass” value in experiment [1] (setting [7]) came to 40. Further, the “Ducksalad plant response rating” value in experiment [2] (62 g ai/ha, scale 0 to 100) stood at 0; in experiment [2] (setting [5]), 0; in experiment [2] (setting [6]), 45. Besides, the “Plant response rating, Ducksalad” value in experiment [2] (setting [7]) is 70. Further, the “Sedge, Umbrella plant response rating” value is reported as 0 in experiment [3] (62 g ai/ha, scale 0 to 100); 25 in experiment [3] (setting [5]); 65 in experiment [3] (setting [6]). The “Plant response rating, Sedge, Umbrella” value in experiment [3] (setting [7]) was 70.
As for `CCc1nc(C(C)(C)C)sc1C(=O)Nc1cccc(C(=O)NCCF)c1` [Compound 209], the “Barnyardgrass plant response rating” value in experiment [1] (setting [4]) stood at 0; in experiment [1] (setting [5]), 55; in experiment [1] (setting [6]), 70. For the same molecule, the “Plant response rating, Barnyardgrass” value in experiment [1] (setting [7]) is reported as 80. For the same molecule, the “Ducksalad plant response rating” value in experiment [2] (setting [4]), in experiment [2] (setting [5]) and in experiment [2] (setting [6]) was 65 each time. Besides, in experiment [2] (setting [7]), the “Plant response rating, Ducksalad” value came to 80. Further, the “Sedge, Umbrella plant response rating” value is 55 in experiment [3] (setting [4]), 55 in experiment [3] (setting [5]) and 65 in experiment [3] (setting [6]). In experiment [3] (setting [7]), the “Plant response rating, Sedge, Umbrella” value came out at 80.
Consider `CCn1nc(C(C)(C)C)cc1C(=O)Nc1cccc(C(C)=O)c1` [Compound 122], for which the “Barnyardgrass plant response rating” value in experiment [1] (setting [4]) worked out at 20; in experiment [1] (setting [8]) it was 50; in experiment [1] (setting [6]), 60. Besides, the “Plant response rating, Barnyardgrass” value in experiment [1] (setting [7]) is listed as 80. Further, the “Ducksalad plant response rating” value in experiment [2] (setting [4]) worked out at 50; in experiment [2] (setting [8]) it was 80; in experiment [2] (setting [6]) it was 80. Besides, in experiment [2] (setting [7]), the “Plant response rating, Ducksalad” value was found to be 80. Also, the results for the “Sedge, Umbrella plant response rating” value in experiment [3] (setting [4]), in experiment [3] (setting [8]) and in experiment [3] (setting [6]) were 50, 60 and 70, respectively. Moreover, the “Plant response rating, Sedge, Umbrella” value in experiment [3] (setting [7]) is 80.
In the case of `CCNC(=O)c1ccc(F)c(NC(=O)c2cc(C(C)(C)C)nn2CC)n1` [Compound 278], the “Barnyardgrass plant response rating” value in experiment [1] (setting [4]), in experiment [1] (setting [5]) and in experiment [1] (setting [6]) was 0 in each case. Moreover, in experiment [1] (setting [7]), the “Plant response rating, Barnyardgrass” value was found to be 25. Besides, the “Ducksalad plant response rating” value in experiment [2] (62 g ai/ha, scale 0 to 100) was 0; in experiment [2] (setting [5]), 0; in experiment [2] (setting [6]), 0. For the same molecule, the “Plant response rating, Ducksalad” value in experiment [2] (setting [7]) was 20. Further, the “Sedge, Umbrella plant response rating” value in experiment [3] (62 g ai/ha, scale 0 to 100) turned out to be 0; in experiment [3] (setting [5]), 25; in experiment [3] (setting [6]), 65. In addition, the “Plant response rating, Sedge, Umbrella” value in experiment [3] (setting [7]) came to 75.
